In one data set the target is T1, DRYK1B (Homo sapiens, UniProt Q9Y463).
T1 construct: Eurofins (contract study)
Put plainly: Eurofins protein kinase panel at 10 μM. The data set is classed as biochemical. Here is the method: (§1) The inhibitory potential of Compound 1 was tested against 38 diverse non-kinase enzymes and 55 receptors, ion channels and neurotransmitter transporters in radioligand competition binding assays using mostly human recombinant proteins. […] Compound 1 was also tested against an additional panel of 468 protein kinases. Studies were performed at Eurofins (Luxembourg City, Luxembourg) using their published assay formats.

Data set [1] deals with panel of 468 protein kinases (all other kinases tested). Kind of data set: Eurofins protein kinase panel at 10 μM. Format: biochemical. The method, then:
as §1

Another data set relates to OCM.109 cells. Kind of data set: 6-day proliferation of patient-derived ovarian cancer model, nuclei count. The data set is classed as cell-based, human. Here is the method:
(§2) Ex vivo ovarian cancer models (OCMs) were established from the ascites of high-grade serous ovarian cancer patients (Coulson-Gilmer, 2021, J Exp Clin Cancer Res) and grown in vitro as 2D cell lines. OCMs were cultured in an incubator at 37° C. in 5% CO2 in OCMI media.
(§3) Compound 1 IC50 values for inhibition of cell proliferation were determined by imaging and counting the number of nuclei after compound treatment. Cells were harvested with trypsin (Thermo Fisher Scientific, Waltham, MA, USA, Cat #25200-056) and plated in Sarstedt 96-well Cell+ Tissue Culture Plates (Thermo Fisher Scientific, Waltham, MA, USA, Cat #NC9624222) at 5,000 cells/well (OCM.109) or 10,000 cells/well (OCM.246) in 100 μL of OCMI medium and incubated overnight at 37° C., 5% CO2. The following day, 1000× Compound 1 and niraparib concentration curves were prepared by serial dilution in 100% DMSO. The 1000× concentration was diluted 1:200 into growth media to generate a 5× concentration curve in 0.5% DMSO/growth medium before addition of 25 μL of the 5× compound to the wells. Control wells received 25 μL of 0.5% DMSO in media or 10 μM of Compound 1. The plates were mixed and incubated for 6 days at 37° C., 5% CO2 before fixing and staining the cells for nuclei counting as described in Example 3.
(§4) Four fields in each well were acquired using the DAPI channel at 10× magnification. Using high-content software (Cell Reporter Xpress), the nuclei were detected and counted. The percent proliferation after treatment was determined by normalizing the number of nuclei in the treated wells to the DMSO and 10 μM Compound 1 control wells. Concentration response curves and IC50 values for percent inhibition of proliferation were generated by non-linear regression analysis using a least squares fit of the log (inhibitor) vs. response-Variable slope (four parameters) curve using GraphPad Prism 10 software (GraphPad Software, Boston, MA, USA).

The next data set deals with OCM.246 cells. The description is as above. The data set is classed as cell-based, human. Here is the method:
as §2, §3, §4

Data set [2] relates to HCC1428 breast cancer xenograft. The following applies: monotherapy or in combinations. Here is the method: The CDX model was established by subcutaneous inoculation of HCC1428 cells into the right flank of BALB/c nude mice. Mice were injected subcutaneously with estradiol benzoate one day prior to cell inoculation and then twice per week thereafter to promote optimal growth of the ER^+ cell line. Groups of 9 animals each were established by random assignment. Tumor volumes and body weights were measured twice weekly. Tumor volume and percent tumor growth inhibition (TGI) or percent tumor regression (REG) were calculated as described in Example 4A. End-of-study Day […] TGI or REG was calculated relative to the Day 25 mean TV from the vehicle group. Statistical analysis of the Day 25 tumor volumes was performed using the Brown-Forsythe and Welch ANOVA test.
Compound treatment was initiated when the mean tumor volume of each group was 184 mm^3. Compound 1 was administered to mice orally for 25 days once daily (QD) at a dose of 100 mg/kg based on body weight. Abemaciclib was administered orally at a dose of 30 mg/kg QD for 25 days based on body weight and fulvestrant was administered subcutaneously at a dose of 5 mg/mouse once per week (QW). Following the dosing period of 25 days, an observation period was conducted for Group 5 (Compound 1+abemaciclib), Group 7 (abemaciclib+fulvestrant), and Group 8 (Compound 1+abemaciclib+fulvestrant) with continued twice weekly measurement of tumor volume and body weight measurements but no additional administration of compound.

Setting [3] is: Homo sapiens, 144 h, read-out: IC50 inhibition of proliferation.

Molecules are shown by their SMILES.

T1 sequence (Q9Y463 whole entry): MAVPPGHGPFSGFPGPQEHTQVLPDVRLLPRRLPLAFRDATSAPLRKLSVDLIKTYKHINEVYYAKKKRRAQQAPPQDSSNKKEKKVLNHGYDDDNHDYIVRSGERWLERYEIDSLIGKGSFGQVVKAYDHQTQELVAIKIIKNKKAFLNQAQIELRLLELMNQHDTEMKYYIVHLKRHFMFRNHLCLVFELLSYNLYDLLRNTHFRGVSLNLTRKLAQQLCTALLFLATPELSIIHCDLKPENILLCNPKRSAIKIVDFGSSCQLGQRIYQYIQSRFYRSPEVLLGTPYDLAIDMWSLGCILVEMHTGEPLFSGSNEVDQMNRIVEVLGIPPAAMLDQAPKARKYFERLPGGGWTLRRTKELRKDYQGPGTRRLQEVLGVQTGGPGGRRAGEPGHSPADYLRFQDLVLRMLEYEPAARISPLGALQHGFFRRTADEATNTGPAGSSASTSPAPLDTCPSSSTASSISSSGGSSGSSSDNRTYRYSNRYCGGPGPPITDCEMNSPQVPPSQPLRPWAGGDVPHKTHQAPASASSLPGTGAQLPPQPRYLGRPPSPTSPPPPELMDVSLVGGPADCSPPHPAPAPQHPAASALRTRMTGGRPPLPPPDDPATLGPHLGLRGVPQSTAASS

`[2H]C([2H])(c1cnn(C)c1)N1C(=O)c2cc(S(=O)(=O)NC3(C)CC3)ccc2N2C1=NC[C@H]2C` [Compound 1, (R)-1-methyl-4-((1-methyl-1H-pyrazol-4-yl)methyl-d2)-N-(1-methylcyclopropyl)-5-oxo-1,2,4,5-tetrahydroimidazo[1,2-a]quinazoline-7-sulfonamide] came in with an inhibition at 10 µM at DRYK1B of 51%. Besides, the “% inhibition” value in data set [1] was less than 50%. Also, the results for the IC50 in the data set on OCM.109 cells (setting [3]) and with OCM.246 cells (setting [3]) were 51 nM and 162 nM, respectively. Also, the figures for the “potency better than niraparib” value with OCM.109 cells (OCM.109) and in the data set on OCM.246 cells (OCM.246) were more than 80 fold and more than 20 fold, respectively. In addition, the tolerability entry in data set [2] was “well tolerated”.

By inhibition is commonly meant how much of the control response was suppressed. Read a high inhibition as strong suppression. What is called % inhibition is the percentage by which the read-out fell short of the control. Low readings indicate little suppression, high ones strong suppression.

Source of the values: US20260272936A1, “TREATMENT OF CANCER WITH A PARG INHIBITOR” (858 Therapeutics, Inc., priority 2023, published 2026).
